# In ChEMBL document CHEMBL3286379, “Design and synthesis of pyrimidine molecules endowed with thiazolidin-4-one as new anticancer agents” (Eur J Med Chem, 2014):
# How the values were obtained:
# Assay type in all cases: functional
# KM12 = test: Growth inhibition of human KM12 cells assessed as cell growth at 10 uM after 48 hrs by sulforhodamine B assay relative to control; conditions: KM12, 48 h, read-out: Activity
# [1] = Growth inhibition of human UO31 cells assessed as cell growth at 10 uM after 48 hrs by sulforhodamine B assay relative to control; conditions: UO-31, 48 h, read-out: Activity
# MCF7 = test: Growth inhibition of human MCF7 cells assessed as cell growth at 10 uM after 48 hrs by sulforhodamine B assay relative to control; conditions: MCF7, 48 h, read-out: Activity
# DU-145 = test: Growth inhibition of human DU145 cells assessed as cell growth at 10 uM after 48 hrs by sulforhodamine B assay relative to control; conditions: DU-145, 48 h, read-out: Activity
# NCI-H322M = test: Growth inhibition of human NCI-H322M cells assessed as cell growth at 10 uM after 48 hrs by sulforhodamine B assay relative to control; conditions: read-out: Activity
# MDA-MB-231 = test: Growth inhibition of human MDA-MB-231 cells after 48 hrs by sulforhodamine B assay; conditions: MDA-MB-231, 48 h
# [2] = Growth inhibition of human OVCAR8 cells assessed as cell growth at 10 uM after 48 hrs by sulforhodamine B assay relative to control; conditions: OVCAR-8, 48 h, read-out: Activity
# [3] = Growth inhibition of human UACC257 cells assessed as cell growth at 10 uM after 48 hrs by sulforhodamine B assay relative to control; conditions: UACC-257, 48 h, read-out: Activity
# PC-3 = test: Growth inhibition of human PC3 cells assessed as cell growth at 10 uM after 48 hrs by sulforhodamine B assay relative to control; conditions: PC-3, 48 h, read-out: Activity
# IGROV-1 [4] = test: Growth inhibition of human IGROV1 cells after 48 hrs by sulforhodamine B assay; conditions: IGROV-1, 48 h
# A498 = test: Growth inhibition of human A498 cells assessed as cell growth at 10 uM after 48 hrs by sulforhodamine B assay relative to control; conditions: A498, 48 h, read-out: Activity
# [5] = Growth inhibition of human RXF393 cells after 48 hrs by sulforhodamine B assay; conditions: RXF 393, 48 h
# [6] = Growth inhibition of human UACC257 cells after 48 hrs by sulforhodamine B assay; conditions: UACC-257, 48 h
# U-251 = test: Growth inhibition of human U251 cells assessed as cell growth at 10 uM after 48 hrs by sulforhodamine B assay relative to control; conditions: U-251, 48 h, read-out: Activity
# SR = test: Growth inhibition of human SR cells assessed as cell growth at 10 uM after 48 hrs by sulforhodamine B assay relative to control; conditions: read-out: Activity
# RPMI-8226 = test: Growth inhibition of human RPMI8226 cells after 48 hrs by sulforhodamine B assay; conditions: RPMI-8226, 48 h
# CCRF-CEM = test: Growth inhibition of human CCRF-CEM cells assessed as cell growth at 10 uM after 48 hrs by sulforhodamine B assay relative to control; conditions: read-out: Activity
# SK-OV-3 = test: Growth inhibition of human SKOV3 cells assessed as cell growth at 10 uM after 48 hrs by sulforhodamine B assay relative to control; conditions: SK-OV-3, 48 h, read-out: Activity
# NCI-H226 = test: Growth inhibition of human NCI-H226 cells assessed as cell growth at 10 uM after 48 hrs by sulforhodamine B assay relative to control; conditions: NCI-H226, 48 h, read-out: Activity
# SNB-75 = test: Growth inhibition of human SNB75 cells assessed as cell growth at 10 uM after 48 hrs by sulforhodamine B assay relative to control; conditions: SNB-75, 48 h, read-out: Activity
# [7] = Growth inhibition of human Hs 578T cells after 48 hrs by sulforhodamine B assay
# SK-MEL-28 = test: Growth inhibition of human SK-MEL-28 cells assessed as cell growth at 10 uM after 48 hrs by sulforhodamine B assay relative to control; conditions: SK-MEL-28, 48 h, read-out: Activity
# [8] = Growth inhibition of human LOXIMVI cells assessed as cell growth at 10 uM after 48 hrs by sulforhodamine B assay relative to control; conditions: LOX IMVI, read-out: Activity
# [9] = Growth inhibition of human OVCAR5 cells assessed as cell growth at 10 uM after 48 hrs by sulforhodamine B assay relative to control; conditions: OVCAR-5, 48 h, read-out: Activity
# Malme-3M = test: Growth inhibition of human MALME-3M cells assessed as cell growth at 10 uM after 48 hrs by sulforhodamine B assay relative to control; conditions: read-out: Activity
# [10] = Growth inhibition of human HCC2998 cells assessed as cell growth at 10 uM after 48 hrs by sulforhodamine B assay relative to control; conditions: HCC 2998, 48 h, read-out: Activity
# HT-29 = test: Growth inhibition of human HT-29 cells assessed as cell growth at 10 uM after 48 hrs by sulforhodamine B assay relative to control; conditions: HT-29, 48 h, read-out: Activity
# IGROV-1 [11] = test: Growth inhibition of human IGROV1 cells assessed as cell growth at 10 uM after 48 hrs by sulforhodamine B assay relative to control; conditions: IGROV-1, 48 h, read-out: Activity
# [12] = Growth inhibition of human NCI-ADR-RES cells assessed as cell growth at 10 uM after 48 hrs by sulforhodamine B assay relative to control; conditions: read-out: Activity
# [13] = Growth inhibition of human HOP92 cells assessed as cell growth at 10 uM after 48 hrs by sulforhodamine B assay relative to control; conditions: HOP-92, 48 h, read-out: Activity
# [14] = read-out: LC50 (the source's name)
# [15] = read-out: pLC50 (the source's name) (converted)
smiles,measurement,setting,value
Nc1nc(-c2ccccc2Cl)cc(-c2ccc(Cl)cc2Cl)n1,growth at 10 µM,KM12,53.8%
same,growth at 10 µM,[1],62.5%
same,growth at 10 µM,MCF7,45.7%
same,growth at 10 µM,DU-145,91.4%
same,growth at 10 µM,NCI-H322M,89.5%
same,GI50,MDA-MB-231; read-out: GI50,9.3 µM
same,CC50,MDA-MB-231; [14],> 100 µM
same,TGI,MDA-MB-231; read-out: TGI,> 100 µM
same,GI50,MDA-MB-231; read-out: pGI50 (converted),9.33 µM
same,CC50,MDA-MB-231; [15],> 100 µM
same,TGI,MDA-MB-231; read-out: pTGI,> 100 µM
same,growth at 10 µM,[2],71.2%
same,growth at 10 µM,[3],93%
same,growth at 10 µM,PC-3,74.2%
same,GI50,IGROV-1 [4]; read-out: GI50,12.3 µM
same,CC50,IGROV-1 [4]; [14],> 100 µM
same,TGI,IGROV-1 [4]; read-out: TGI,> 100 µM
same,GI50,IGROV-1 [4]; read-out: pGI50 (converted),12.3 µM
same,CC50,IGROV-1 [4]; [15],> 100 µM
same,TGI,IGROV-1 [4]; read-out: pTGI,> 100 µM
same,growth at 10 µM,A498,53.7%
same,GI50,[5]; read-out: GI50,2.67 µM
same,CC50,[5]; [14],> 100 µM
same,TGI,[5]; read-out: TGI,10.7 µM
same,GI50,[5]; read-out: pGI50 (converted),2.69 µM
same,CC50,[5]; [15],> 100 µM
same,TGI,[5]; read-out: pTGI (converted),10.7 µM
same,GI50,[6]; read-out: GI50,11.9 µM
same,CC50,[6]; [14],> 100 µM
same,TGI,[6]; read-out: TGI,55.2 µM
same,GI50,[6]; read-out: pGI50 (converted),11.7 µM
same,CC50,[6]; [15],> 100 µM
same,TGI,[6]; read-out: pTGI (converted),55 µM
same,growth at 10 µM,U-251,65%
same,growth at 10 µM,SR,25.4%
same,GI50,RPMI-8226; read-out: GI50,3.1 µM
same,CC50,RPMI-8226; [14],> 100 µM
same,TGI,RPMI-8226; read-out: TGI,17.6 µM
same,GI50,RPMI-8226; read-out: pGI50 (converted),3.09 µM
same,CC50,RPMI-8226; [15],> 100 µM
same,TGI,RPMI-8226; read-out: pTGI (converted),17.4 µM
same,growth at 10 µM,CCRF-CEM,57.5%
same,growth at 10 µM,SK-OV-3,93%
same,growth at 10 µM,NCI-H226,87.7%
same,growth at 10 µM,SNB-75,30.5%
same,GI50,[7]; read-out: GI50,6.04 µM
same,CC50,[7]; [14],> 100 µM
same,TGI,[7]; read-out: TGI,60.7 µM
same,GI50,[7]; read-out: pGI50 (converted),6.03 µM
same,CC50,[7]; [15],> 100 µM
same,TGI,[7]; read-out: pTGI (converted),60.3 µM
same,growth at 10 µM,SK-MEL-28,88%
same,growth at 10 µM,[8],55.4%
same,growth at 10 µM,[9],96.2%
same,growth at 10 µM,Malme-3M,86.6%
same,growth at 10 µM,[10],83.6%
same,growth at 10 µM,HT-29,36.6%
same,growth at 10 µM,IGROV-1 [11],74.7%
same,growth at 10 µM,[12],79.8%
same,growth at 10 µM,[13],76.2%
O=C1CS/C(=N\c2nc(-c3ccccc3Cl)cc(-c3ccc(Cl)cc3Cl)n2)N1,growth at 10 µM,KM12,97.7%
same,growth at 10 µM,[1],58%
same,growth at 10 µM,MCF7,87.2%
same,growth at 10 µM,DU-145,105%
same,growth at 10 µM,NCI-H322M,94.9%
same,growth at 10 µM,[2],96.1%
same,growth at 10 µM,[3],107%
same,growth at 10 µM,PC-3,83.8%
same,growth at 10 µM,A498,101%
same,growth at 10 µM,U-251,105%
same,growth at 10 µM,SR,75.1%
same,growth at 10 µM,CCRF-CEM,85.9%
same,growth at 10 µM,SK-OV-3,95.4%
same,growth at 10 µM,NCI-H226,104%
same,growth at 10 µM,SNB-75,76.6%
same,growth at 10 µM,SK-MEL-28,102%
same,growth at 10 µM,[8],90.4%
same,growth at 10 µM,[9],108%
same,growth at 10 µM,Malme-3M,87.3%
same,growth at 10 µM,[10],101%
same,growth at 10 µM,HT-29,107%
same,growth at 10 µM,IGROV-1 [11],98.2%
same,growth at 10 µM,[12],98.1%
same,growth at 10 µM,[13],84.6%
O=C1N/C(=N/c2nc(-c3ccccc3Cl)cc(-c3ccc(Cl)cc3Cl)n2)S/C1=C/c1ccc(Cl)cc1,growth at 10 µM,KM12,79.8%
same,growth at 10 µM,[1],55.2%
same,growth at 10 µM,MCF7,50.4%
same,growth at 10 µM,DU-145,100%
same,growth at 10 µM,NCI-H322M,78.1%
same,growth at 10 µM,[2],91.6%
same,growth at 10 µM,[3],93.2%
same,growth at 10 µM,PC-3,79%
same,growth at 10 µM,A498,76.2%
same,growth at 10 µM,U-251,89.4%
same,growth at 10 µM,SR,32.4%
same,growth at 10 µM,CCRF-CEM,75.5%
same,growth at 10 µM,SK-OV-3,99.2%
same,growth at 10 µM,NCI-H226,98.5%
same,growth at 10 µM,SNB-75,97.5%
same,growth at 10 µM,SK-MEL-28,104%
same,growth at 10 µM,[8],74.1%
same,growth at 10 µM,[9],102%
same,growth at 10 µM,Malme-3M,91.5%
same,growth at 10 µM,[10],102%
same,growth at 10 µM,HT-29,103%
same,growth at 10 µM,IGROV-1 [11],82.3%
same,growth at 10 µM,[12],90.1%
same,growth at 10 µM,[13],55.1%
